According to the NIST ThermoML archive (doi:10.1016/j.jct.2016.12.037):

Test: xn = mol fraction of the nth substance listed
Conditions: Liquid; for viscosity: Concentric cylinders viscometry

CCCC[n+]1ccn(C)c1.O=S(=O)([N-]S(=O)(=O)C(F)(F)F)C(F)(F)F + CCCCn1cc[n+](C)c1.[Cl-]
viscosity [mPa·s], 100 kPa
Conditions | 293.15 K | 303.15 K | 313.15 K | 323.15 K | 333.15 K | 343.15 K | 353.15 K | 363.15 K | 373.15 K
x2 = 0 | 63.41 | 41.26 | 28.46 | 20.58 | 15.47 | 12 | 9.562 | 7.788 | 6.469
x2 = 0.25 | 150.8 | 89.81 | 57.25 | 38.43 | 27.37 | 20.16 | 15.34 | 12.03 | 9.638
x2 = 0.5 | 489.6 | 255.5 | 144.8 | 87.69 | 57.22 | 39.08 | 27.82 | 20.61 | 15.7
x2 = 0.75 | – | 1095 | 513 | 265.5 | 150.4 | 91.4 | 58.87 | 40.11 | 28.43

mass density [kg/m3]
Conditions | x2 = 0 | x2 = 0.25 | x2 = 0.5 | x2 = 0.75
293.15 K, 100 kPa, Vibrating tube method | 1440.9 | 1383.3 | 1310.1 | –
303.15 K, 100 kPa, Vibrating tube method | 1431.6 | 1374.4 | 1301.8 | 1207.9
312.3 K, 10000 kPa, Bellows volumetry | – | 1373.1 | 1300.2 | 1205.8
312.3 K, 20000 kPa, Bellows volumetry | – | 1379.8 | 1306.1 | 1210.5
312.3 K, 30000 kPa, Bellows volumetry | – | 1386 | 1311.7 | 1215
312.3 K, 40000 kPa, Bellows volumetry | – | 1392 | 1317 | 1219.3
312.3 K, 50000 kPa, Bellows volumetry | – | 1397.7 | 1322.1 | 1223.6
312.3 K, 60000 kPa, Bellows volumetry | – | 1403.3 | 1326.9 | 1227.7
312.3 K, 70000 kPa, Bellows volumetry | – | 1408.6 | 1331.6 | 1231.6
312.3 K, 80000 kPa, Bellows volumetry | – | 1413.7 | 1336.2 | 1235.5
312.3 K, 90000 kPa, Bellows volumetry | – | 1418.5 | 1340.5 | 1239.2
312.3 K, 100000 kPa, Bellows volumetry | – | 1423.4 | 1344.8 | 1242.8
312.3 K, 110000 kPa, Bellows volumetry | – | 1428.1 | 1349.1 | 1246.4
312.3 K, 120000 kPa, Bellows volumetry | – | 1432.6 | 1353.1 | 1249.9
312.3 K, 130000 kPa, Bellows volumetry | – | 1437.1 | 1357.1 | 1253.3
312.3 K, 140000 kPa, Bellows volumetry | – | 1441.3 | 1360.9 | 1256.6
312.3 K, 150000 kPa, Bellows volumetry | – | 1445.6 | 1364.7 | 1260
312.3 K, 160000 kPa, Bellows volumetry | – | 1449.7 | 1368.4 | 1263.1
312.3 K, 170000 kPa, Bellows volumetry | – | 1453.8 | 1372.2 | 1266.3
312.3 K, 180000 kPa, Bellows volumetry | – | 1457.7 | 1375.8 | 1269.4
312.3 K, 190000 kPa, Bellows volumetry | – | 1461.7 | 1379.3 | 1272.4
312.3 K, 200000 kPa, Bellows volumetry | – | 1465.4 | 1382.7 | 1275.5
313.15 K, 100 kPa, Vibrating tube method | 1422.1 | 1365.6 | 1293.9 | 1200.6
323.15 K, 100 kPa, Vibrating tube method | 1412.6 | 1356.8 | 1286 | 1193.6
331.8 K, 10000 kPa, Bellows volumetry | – | 1356.2 | 1285.2 | 1192.4
331.8 K, 20000 kPa, Bellows volumetry | – | 1363.2 | 1291.3 | 1197.3
331.8 K, 30000 kPa, Bellows volumetry | – | 1369.9 | 1297.1 | 1202.1
331.8 K, 40000 kPa, Bellows volumetry | – | 1376.2 | 1302.7 | 1206.7
331.8 K, 50000 kPa, Bellows volumetry | – | 1382.2 | 1307.9 | 1211.1
331.8 K, 60000 kPa, Bellows volumetry | – | 1388 | 1313 | 1215.5
331.8 K, 70000 kPa, Bellows volumetry | – | 1393.5 | 1318 | 1219.5
331.8 K, 80000 kPa, Bellows volumetry | – | 1398.9 | 1322.8 | 1223.6
331.8 K, 90000 kPa, Bellows volumetry | – | 1404 | 1327.2 | 1227.4
331.8 K, 100000 kPa, Bellows volumetry | – | 1408.9 | 1331.6 | 1231.2
331.8 K, 110000 kPa, Bellows volumetry | – | 1413.9 | 1336.1 | 1235
331.8 K, 120000 kPa, Bellows volumetry | – | 1418.5 | 1340.4 | 1238.5
331.8 K, 130000 kPa, Bellows volumetry | – | 1423.2 | 1344.4 | 1242
331.8 K, 140000 kPa, Bellows volumetry | – | 1427.6 | 1348.5 | 1245.4
331.8 K, 150000 kPa, Bellows volumetry | – | 1432 | 1352.3 | 1248.7
331.8 K, 160000 kPa, Bellows volumetry | – | 1436.3 | 1356.2 | 1252.1
331.8 K, 170000 kPa, Bellows volumetry | – | 1440.5 | 1359.9 | 1255.3
331.8 K, 180000 kPa, Bellows volumetry | – | 1444.5 | 1363.8 | 1258.5
331.8 K, 190000 kPa, Bellows volumetry | – | 1448.5 | 1367.3 | 1261.6
331.8 K, 200000 kPa, Bellows volumetry | – | 1452.6 | 1371 | 1264.7
333.15 K, 100 kPa, Vibrating tube method | 1403.4 | 1348.2 | 1278.3 | 1186.8
343.15 K, 100 kPa, Vibrating tube method | 1394 | 1339.6 | 1270.6 | 1180.2
351.9 K, 10000 kPa, Bellows volumetry | – | 1339.5 | 1270.2 | 1179
351.9 K, 20000 kPa, Bellows volumetry | – | 1346.9 | 1276.5 | 1184.3
351.9 K, 30000 kPa, Bellows volumetry | – | 1354 | 1282.7 | 1189.3
351.9 K, 40000 kPa, Bellows volumetry | – | 1360.6 | 1288.5 | 1194.1
351.9 K, 50000 kPa, Bellows volumetry | – | 1366.9 | 1294.1 | 1198.8
351.9 K, 60000 kPa, Bellows volumetry | – | 1373 | 1299.5 | 1203.2
351.9 K, 70000 kPa, Bellows volumetry | – | 1378.9 | 1304.5 | 1207.5
351.9 K, 80000 kPa, Bellows volumetry | – | 1384.5 | 1309.5 | 1211.8
351.9 K, 90000 kPa, Bellows volumetry | – | 1389.8 | 1314.2 | 1215.7
351.9 K, 100000 kPa, Bellows volumetry | – | 1394.9 | 1318.9 | 1219.6
351.9 K, 110000 kPa, Bellows volumetry | – | 1400 | 1323.3 | 1223.4
351.9 K, 120000 kPa, Bellows volumetry | – | 1404.9 | 1327.8 | 1227.2
351.9 K, 130000 kPa, Bellows volumetry | – | 1409.6 | 1332 | 1230.8
351.9 K, 140000 kPa, Bellows volumetry | – | 1414.2 | 1336.1 | 1234.5
351.9 K, 150000 kPa, Bellows volumetry | – | 1418.7 | 1340.3 | 1237.9
351.9 K, 160000 kPa, Bellows volumetry | – | 1423.2 | 1344.2 | 1241.4
351.9 K, 170000 kPa, Bellows volumetry | – | 1427.5 | 1348 | 1244.7
351.9 K, 180000 kPa, Bellows volumetry | – | 1431.7 | 1351.8 | 1247.9
351.9 K, 190000 kPa, Bellows volumetry | – | 1435.8 | 1355.6 | 1251.2
351.9 K, 200000 kPa, Bellows volumetry | – | 1439.9 | 1359.2 | 1254.3
353.15 K, 100 kPa, Vibrating tube method | 1384.8 | 1331.1 | 1263 | 1173.6
363.15 K, 100 kPa, Vibrating tube method | 1375.6 | 1322.6 | 1255.4 | 1167.1
372.1 K, 10000 kPa, Bellows volumetry | – | 1322.9 | 1255 | 1165.9
372.1 K, 20000 kPa, Bellows volumetry | – | 1330.9 | 1261.8 | 1171.6
372.1 K, 30000 kPa, Bellows volumetry | – | 1338.3 | 1268.4 | 1176.9
372.1 K, 40000 kPa, Bellows volumetry | – | 1345.3 | 1274.6 | 1181.9
372.1 K, 50000 kPa, Bellows volumetry | – | 1352 | 1280.4 | 1186.7
372.1 K, 60000 kPa, Bellows volumetry | – | 1358.3 | 1286 | 1191.4
372.1 K, 70000 kPa, Bellows volumetry | – | 1364.4 | 1291.3 | 1195.9
372.1 K, 80000 kPa, Bellows volumetry | – | 1370.4 | 1296.5 | 1200.3
372.1 K, 90000 kPa, Bellows volumetry | – | 1375.8 | 1301.4 | 1204.4
372.1 K, 100000 kPa, Bellows volumetry | – | 1381.2 | 1306.1 | 1208.5
372.1 K, 110000 kPa, Bellows volumetry | – | 1386.4 | 1310.9 | 1212.5
372.1 K, 120000 kPa, Bellows volumetry | – | 1391.5 | 1315.4 | 1216.3
372.1 K, 130000 kPa, Bellows volumetry | – | 1396.2 | 1319.8 | 1220
372.1 K, 140000 kPa, Bellows volumetry | – | 1401.1 | 1324.2 | 1223.7
372.1 K, 150000 kPa, Bellows volumetry | – | 1405.7 | 1328.4 | 1227.3
372.1 K, 160000 kPa, Bellows volumetry | – | 1410.3 | 1332.5 | 1230.8
372.1 K, 170000 kPa, Bellows volumetry | – | 1414.7 | 1336.4 | 1234.1
372.1 K, 180000 kPa, Bellows volumetry | – | 1419 | 1340.3 | 1237.6
372.1 K, 190000 kPa, Bellows volumetry | – | 1423.3 | 1344.1 | 1240.8
372.1 K, 200000 kPa, Bellows volumetry | – | 1427.6 | 1347.9 | 1244.1
373.15 K, 100 kPa, Vibrating tube method | 1366.7 | 1314 | 1247.5 | 1160.2
392.3 K, 10000 kPa, Bellows volumetry | – | 1306.7 | 1240.1 | 1152.9
392.3 K, 20000 kPa, Bellows volumetry | – | 1315.1 | 1247.4 | 1158.8
392.3 K, 30000 kPa, Bellows volumetry | – | 1323.1 | 1254.3 | 1164.4
392.3 K, 40000 kPa, Bellows volumetry | – | 1330.5 | 1260.9 | 1169.7
392.3 K, 50000 kPa, Bellows volumetry | – | 1337.5 | 1266.9 | 1174.8
392.3 K, 60000 kPa, Bellows volumetry | – | 1344.2 | 1272.8 | 1179.6
392.3 K, 70000 kPa, Bellows volumetry | – | 1350.5 | 1278.4 | 1184.3
392.3 K, 80000 kPa, Bellows volumetry | – | 1356.6 | 1283.8 | 1188.8
392.3 K, 90000 kPa, Bellows volumetry | – | 1362.4 | 1288.8 | 1193.1
392.3 K, 100000 kPa, Bellows volumetry | – | 1368 | 1293.8 | 1197.3
392.3 K, 110000 kPa, Bellows volumetry | – | 1373.3 | 1298.7 | 1201.5
392.3 K, 120000 kPa, Bellows volumetry | – | 1378.6 | 1303.4 | 1205.5
392.3 K, 130000 kPa, Bellows volumetry | – | 1383.7 | 1308 | 1209.3
392.3 K, 140000 kPa, Bellows volumetry | – | 1388.7 | 1312.4 | 1213.1
392.3 K, 150000 kPa, Bellows volumetry | – | 1393.5 | 1316.8 | 1216.8
392.3 K, 160000 kPa, Bellows volumetry | – | 1398.2 | 1320.9 | 1220.4
392.3 K, 170000 kPa, Bellows volumetry | – | 1402.8 | 1325.1 | 1224
392.3 K, 180000 kPa, Bellows volumetry | – | 1407.1 | 1329.2 | 1227.4
392.3 K, 190000 kPa, Bellows volumetry | – | 1411.5 | 1333 | 1230.8
392.3 K, 200000 kPa, Bellows volumetry | – | 1415.9 | 1336.9 | 1234.2
